Reference: the RepoRT retention time repository

Assay: Waters ACQUITY UPLC BEH Shield RP18, 100 × 2.1 mm, 1.7 µm, 40 °C, 0.4 mL/min, estimated dead time 0.55 min; A: water + 0.1% formic acid; B: acetonitrile; gradient (min/%B) 0/2 10/18 15/28 22/40 32/67
Conditions: stereoisomer not certain

SMILES | LC retention time [min]
COc1ccc(-c2coc3cc(OC4OC(CO)C(O)C(O)C4O)ccc3c2=O)cc1 (configuration not stated) | 12.3
CC1(CO)CC(O)C2(C)CCC3(C)C(=CC(=O)C4C5(C)CCC(OC6OC(C(=O)O)C(O)C(O)C6OC6OC(C(=O)O)C(O)C(O)C6O)C(C)(C)C5CCC43C)C2C1 (configuration not stated) | 16.8
CC(C)=CCc1c(O)cc2oc(-c3ccc(O)cc3)c(O)c(=O)c2c1O | 28.1
COc1c(CC=C(C)C)c(O)cc2c1CC(c1ccc(O)c(CC=C(C)C)c1O)CO2 (configuration not stated) | 28.7
CC1(C(=O)O)CCC2(C)CCC3(C)C(=CC(=O)C4C5(C)CCC(O)C(C)(C)C5CCC43C)C2C1 (configuration not stated) | 29.2
CC(C)=CCc1cc(-c2oc3cc(O)cc(O)c3c(=O)c2O)ccc1O | 26.1
CC(=O)OC1CC(C)(C(=O)O)CC2C3=CC(=O)C4C5(C)CCC(OC6OC(C(=O)O)C(O)C(O)C6OC6OC(C(=O)O)C(O)C(O)C6O)C(C)(CO)C5CCC4(C)C3(C)CCC12C (configuration not stated) | 17.8
CC1(C(=O)O)CCC2(C)CCC3(C)C(=C2C1)C=CC1C2(C)CCC(OC4OC(C(=O)O)C(O)C(O)C4OC4OC(C(=O)O)C(O)C(O)C4O)C(C)(CO)C2CCC13C (configuration not stated) | 22.3
O=C(C=Cc1ccc(OC2OC(CO)C(O)C(O)C2OC2OCC(O)(CO)C2O)cc1)c1ccc(O)cc1O (configuration not stated) | 14
COc1ccc(-c2coc3cc(OC4OC(CO)C(O)C(O)C4OC4OCC(O)(CO)C4O)ccc3c2=O)cc1 (configuration not stated) | 12.2
O=c1cc(-c2ccc(O)cc2)oc2c(C3OCC(O)C(O)C3O)c(O)c(C3OC(CO)C(O)C(O)C3O)c(O)c12 (configuration not stated) | 8.56
O=C(O)CC(C(=O)O)c1ccc(O)cc1 (configuration not stated) | 4.34
CC12CC(OC1=O)C1(C)CCC3(C)C(=CC(=O)C4C5(C)CCC(OC6OC(C(=O)O)C(O)C(O)C6OC6OC(C(=O)O)C(O)C(O)C6O)C(C)(C)C5CCC43C)C1C2 (configuration not stated) | 19.8
COc1cc2oc(-c3ccc(O)c(CC=C(C)C)c3)c(O)c2cc1OC | 24.8
C=CC(C)(C)c1cc(C=CC(=O)c2ccc(O)cc2)c(OC)cc1O | 26.3
CC(C)=CCc1cc(-c2cc(=O)c3c(O)cc(O)cc3o2)cc(O)c1O | 24.9
COc1c(CC=C(C)C)c(O)cc2oc(=O)c3c4ccc(O)cc4oc3c12 | 27.2
COc1cc(O)c(-c2coc3cc(O)ccc3c2=O)c(OC)c1CC=C(C)C | 24.1
CC1(C(=O)OC2OC(CO)C(O)C(O)C2O)CCC2(C)CCC3(C)C(=CC(=O)C4C5(C)CCC(OC6OC(C(=O)O)C(O)C(O)C6OC6OC(C(=O)O)C(O)C(O)C6O)C(C)(C)C5CCC43C)C2C1 (configuration not stated) | 17.4
CC1(C)C=Cc2c(ccc(-c3coc4cc(O)cc(O)c4c3=O)c2O)O1 | 26.9
CC1(C(=O)O)CCC2(C)CCC3(C)C(=CC(=O)C4C5(C)CCC(OC6OC(C(=O)O)C(O)C(O)C6OC6OC(C(=O)O)C(O)C(O)C6O)C(C)(CO)C5CCC43C)C2C1 (configuration not stated) | 20.7
O=C(C=Cc1ccc(OC2OC(CO)C(O)C(O)C2O)cc1)c1ccc(O)cc1O (configuration not stated) | 14.3

Second part, the compound after the results:

LC retention time [min] | SMILES
19 | COc1ccc(-c2coc3cc(O)ccc3c2=O)cc1
15.1 | COc1ccc(-c2coc3cc(O)ccc3c2=O)cc1O
19.9 | COc1cc(O)cc2oc(=O)c(-c3ccc(O)cc3O)cc12
9.18 | O=C1CC(c2ccc(O)cc2)Oc2cc(OC3OC(CO)C(O)C(O)C3O)ccc21 (configuration not stated)
6.01 | O=C1CC(c2ccc(OC3OC(CO)C(O)C(O)C3O)cc2)Oc2cc(OC3OC(CO)C(O)C(O)C3O)ccc21 (configuration not stated)
10.2 | O=C1CC(c2ccc(OC3OC(CO)C(O)C(O)C3OC3OCC(O)(CO)C3O)cc2)Oc2cc(O)ccc21 (configuration not stated)
14.5 | O=C(C=Cc1ccc(O)cc1)c1ccc(OC2OC(CO)C(O)C(O)C2O)cc1O (configuration not stated)
9.89 | O=C1CC(c2ccc(OC3OC(CO)C(O)C(O)C3O)cc2)Oc2cc(O)ccc21 (configuration not stated)
15.1 | COc1cc(O)c2c(=O)c(OC)c(-c3ccc(O)cc3)oc2c1
14.6 | O=C1CC(c2ccc(O)cc2)Oc2cc(O)ccc21 (configuration not stated)
